Test results: PMC8514580, “Insight into the interaction between the RNA helicase CGH-1 and EDC-3 and its implications” (Scientific Reports, 2021)
Like-named read-outs stand apart in the source and are kept apart here. No end group written: not given here.

Key:
CGH-1_248-420^F355A = CGH-1_248-420^F355A (Caenorhabditis elegans, UniProt Q95YF3, F355A); settings: ITC, 20 °C, pH 7.5, 150 mM NaCl, CGH-1 F355A
Procedure: Expression plasmids regarding CGH-1 and CAR-1 were constructed as previously described. In brief, the cDNA fragments encoding CGH-1 RecA2 (residues 248–420), CAR-1 FDF-TFG (residues 184–268) were amplified by PCR from C. elegans genome library and cloned into the NdeI and XhoI site of a modified pET-28a (Novagen) vector (p28a), in which a thrombin protease cleavage site was removed.
CGH-1 protein expression and purification were performed described as in our most recent paper. In brief, proteins were expressed in E. coli Gold (DE3) strain (Novagen). […] Cells were resuspended in Buffer A (20 mM Tris–HCl, pH 7.5, 1 M NaCl), and then lysed using high pressure at 4 °C. Proteins were initially purified by Ni-chelating resin (Qiagen), and further purified by size exclusion chromatography (SEC) on a Superdex 75 column (GE healthcare) in Buffer A. The purified proteins were dialyzed into Buffer B (20 mM Tris–HCl, pH 7.5, 150 mM NaCl).
A peptide containing the C. elegans EDC-3 FDF fragment (residues 235–271) and PATR-1 fragment (residues 30–67) were synthesized from GL Biochem (Shanghai, China) Co., Ltd, respectively. Stock solutions of peptide were prepared in Buffer B described above, and were adjusted to pH 7.5 ± 0.02 for subsequent experiments.
ITC assays were performed as previously described. In brief, it was carried out on a MicroCal PEAQ-ITC (Malvern) at 20 °C with the following settings: reference power, 5 μcal/s; initial delay, 60 s; stir speed, 750 rpm; spacing time, 120 s. Proteins (or its mutants) and peptides were adjusted to 0.05 mM and 0.5 mM, respectively. Experiments were initialed by injection of 1 μl each of peptide into the sample cell (200 μl) filled with protein (or its mutants) solution, followed by 18 injections of 2 μl. The ITC data were fitted with a one-binding-site model using the Origin analysis software.

[1] = molecular target: T1, CGH-1_(248–420) wild type (CGH-1 RecA2 domain) (C. elegans, UniProt Q95YF3 248-420); assay: ITC; ligand (peptide or CAR-1 fragment, 0.5 mM) injected into CGH-1_(248-420) or mutant (0.05 mM) in the cell; 20 °C; Buffer B (20 mM Tris-HCl pH 7.5, 150 mM NaCl); one-binding-site model; settings: both partners purified
T1 construct: Cloned into NdeI/XhoI of a modified pET-28a in which the thrombin cleavage site was removed; also called CGH-1_248-420^WT; source: E. coli Gold (DE3), purified (Ni-chelating resin, SEC Superdex 75)
T1 sequence (looked up): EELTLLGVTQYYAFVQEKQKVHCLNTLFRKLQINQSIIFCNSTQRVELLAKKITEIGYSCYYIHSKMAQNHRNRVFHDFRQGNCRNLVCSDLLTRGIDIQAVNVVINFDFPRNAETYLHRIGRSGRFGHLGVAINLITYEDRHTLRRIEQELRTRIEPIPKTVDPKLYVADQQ

Sequence of CGH-1_248-420^F355A (Q95YF3 248-420 F355A): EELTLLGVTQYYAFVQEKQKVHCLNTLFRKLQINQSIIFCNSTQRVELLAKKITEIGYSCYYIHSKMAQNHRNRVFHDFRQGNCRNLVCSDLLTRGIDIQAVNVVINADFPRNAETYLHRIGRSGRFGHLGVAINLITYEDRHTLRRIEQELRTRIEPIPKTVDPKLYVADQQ

SDEDHNIFDDEFDAANDETFGGGLDNIGENAELENYAT [PATR-1_30–67]
KD / binding (in words) (CGH-1_248-420^F355A): almost abolished the binding
KD / binding (in words) (CGH-1_248-420^F355A; listed as CePATR-1_30–67): almost abolishes the binding
KD / binding (in words) (CGH-1_248-420^F355A; listed as PATR1 30-67): No binding
KD / binding (in words) (CGH-1_248-420^F355A; listed as PATR-1 peptide): undetectable binding

B1: CAR-1 FDF-TFG (CAR-1_(184–268)) (domain or fragment, C. elegans, UniProt Q9XW17 184-268, looked up)
chain: LKFESDFDFEKANEKFQEVLVDNLEKLNIEDKAEPEVEEKKDAAFYDKKTSFFDNISCESLEKAEGKTGRPDWKKERETNQETFG
notes: thrombin site of the vector removed; also called CAR-1_184-268^WT; recombinant CAR-1_(184–268) protein; source: recombinant; plasmid in modified pET-28a
Kd [1]: 3.03 ± 0.21 µM
dH [1]: -27 ± 0.43 kcal per mol
stoichiometry N [1]: 0.89
